The values below come from patent publication US8530461B2 (Boehringer Ingelheim International GmbH, priority 2011, dated 2013).

In general, IC50 refers to the concentration at which inhibition is half-maximal.

For the test, the target named is T1, human ACC2 (Homo sapiens, UniProt O00763).
T1 construct: made in house; host or cells: insect cells (baculoviral expression system)
T1 sequence (O00763 129-2458 limits assumed): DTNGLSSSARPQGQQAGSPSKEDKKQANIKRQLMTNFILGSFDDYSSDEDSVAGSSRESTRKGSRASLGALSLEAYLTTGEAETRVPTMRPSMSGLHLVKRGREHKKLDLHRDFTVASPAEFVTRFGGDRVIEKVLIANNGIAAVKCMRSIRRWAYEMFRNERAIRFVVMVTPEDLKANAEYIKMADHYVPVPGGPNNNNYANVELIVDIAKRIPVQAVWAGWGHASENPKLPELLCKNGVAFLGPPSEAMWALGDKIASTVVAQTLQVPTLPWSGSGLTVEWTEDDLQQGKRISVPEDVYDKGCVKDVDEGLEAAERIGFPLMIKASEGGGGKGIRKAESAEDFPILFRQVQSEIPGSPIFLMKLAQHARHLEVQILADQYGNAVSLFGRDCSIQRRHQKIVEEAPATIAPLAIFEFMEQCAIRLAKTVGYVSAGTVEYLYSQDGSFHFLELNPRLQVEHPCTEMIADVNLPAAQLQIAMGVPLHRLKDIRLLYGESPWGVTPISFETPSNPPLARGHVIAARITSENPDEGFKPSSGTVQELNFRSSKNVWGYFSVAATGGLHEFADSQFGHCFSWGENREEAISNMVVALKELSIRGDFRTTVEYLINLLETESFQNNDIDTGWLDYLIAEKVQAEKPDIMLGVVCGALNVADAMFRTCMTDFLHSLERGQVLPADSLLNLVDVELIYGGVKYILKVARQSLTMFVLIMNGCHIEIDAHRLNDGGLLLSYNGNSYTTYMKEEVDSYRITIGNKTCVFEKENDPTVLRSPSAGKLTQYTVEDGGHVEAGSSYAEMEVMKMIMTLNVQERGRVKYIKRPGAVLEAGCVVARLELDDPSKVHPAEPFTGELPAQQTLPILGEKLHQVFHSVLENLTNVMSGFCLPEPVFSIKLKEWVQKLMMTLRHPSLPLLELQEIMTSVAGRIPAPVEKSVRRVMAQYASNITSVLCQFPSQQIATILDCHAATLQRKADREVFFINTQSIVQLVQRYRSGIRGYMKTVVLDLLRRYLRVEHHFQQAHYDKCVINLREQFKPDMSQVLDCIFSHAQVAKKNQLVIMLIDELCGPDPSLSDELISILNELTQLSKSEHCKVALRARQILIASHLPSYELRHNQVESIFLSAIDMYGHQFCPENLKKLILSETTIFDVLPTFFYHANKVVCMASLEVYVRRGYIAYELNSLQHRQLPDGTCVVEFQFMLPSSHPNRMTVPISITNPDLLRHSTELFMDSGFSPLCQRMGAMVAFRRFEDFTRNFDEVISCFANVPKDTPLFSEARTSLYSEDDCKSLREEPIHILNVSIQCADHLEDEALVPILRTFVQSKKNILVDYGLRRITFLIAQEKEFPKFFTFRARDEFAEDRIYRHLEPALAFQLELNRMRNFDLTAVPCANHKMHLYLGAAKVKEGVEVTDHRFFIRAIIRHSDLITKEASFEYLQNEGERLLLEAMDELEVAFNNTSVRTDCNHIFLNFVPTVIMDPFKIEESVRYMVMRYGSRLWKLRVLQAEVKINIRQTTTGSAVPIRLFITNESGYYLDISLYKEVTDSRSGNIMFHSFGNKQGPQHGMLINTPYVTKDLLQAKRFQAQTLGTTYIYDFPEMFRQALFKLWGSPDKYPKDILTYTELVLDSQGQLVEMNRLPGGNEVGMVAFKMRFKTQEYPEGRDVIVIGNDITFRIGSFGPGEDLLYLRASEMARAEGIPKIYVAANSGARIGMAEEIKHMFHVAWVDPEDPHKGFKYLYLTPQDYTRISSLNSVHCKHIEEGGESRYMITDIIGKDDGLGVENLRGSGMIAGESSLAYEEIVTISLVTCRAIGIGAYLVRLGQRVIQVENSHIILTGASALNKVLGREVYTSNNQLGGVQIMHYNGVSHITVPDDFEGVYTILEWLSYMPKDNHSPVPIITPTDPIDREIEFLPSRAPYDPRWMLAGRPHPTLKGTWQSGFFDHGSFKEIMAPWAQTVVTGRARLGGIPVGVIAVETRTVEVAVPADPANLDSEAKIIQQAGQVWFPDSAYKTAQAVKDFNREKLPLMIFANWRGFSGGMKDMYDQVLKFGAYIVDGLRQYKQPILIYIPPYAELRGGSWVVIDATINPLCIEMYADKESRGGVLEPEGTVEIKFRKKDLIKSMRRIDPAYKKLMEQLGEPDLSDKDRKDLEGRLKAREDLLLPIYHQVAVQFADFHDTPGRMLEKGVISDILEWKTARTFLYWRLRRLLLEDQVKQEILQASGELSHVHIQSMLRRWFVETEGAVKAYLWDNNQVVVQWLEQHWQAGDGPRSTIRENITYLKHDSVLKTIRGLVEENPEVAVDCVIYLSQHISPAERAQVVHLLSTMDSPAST
As to the kind of experiment: ACC2 assay, spectrophotometric 384 well assay (NADH-linked, coupled lactate dehydrogenase/pyruvate kinase). Format: biochemical. Conditions: ACC2 assay; human ACC2 construct lacking 128 N-terminal amino acids; 25° C., 340 nm, 15 minutes; read-out: IC50. The gist of the method: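 N-terminally truncated (Δ128) human ACC2 expressed in baculovirus/insect cells; ADP formation coupled via pyruvate kinase/lactate dehydrogenase to NADH consumption, pH 7.5, 25 mM KHCO3, 1% DMSO. Reaction started with NADH, acetyl-CoA and ATP (500 uM f.c.); A340 slope over 15 min at 25° C, IC50 by four-parameter fit after subtracting no-acetyl-CoA controls.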
On to `CC(=O)NC(C)c1ccc(N2CC(Oc3ccnc(OCC(F)F)c3)C2)cc1` (stereo not shown) [Example 11.6], for which the concentration for half-maximal inhibition (IC50) is 150 nM. For `CC(C)COc1cc(OC2CN(c3ccc(C(C)NC(=O)C4CC4)cc3)C2)ccn1` (stereo not shown) [Example 11.7] the value was 230 nM; for `CC(=O)N[C@@H](C)c1ccc(N2CC(Oc3cccc(N(C)CC(C)(C)O)n3)C2)cc1` [Example 12.1, (S)—N-{1-[4-(3-{6-[(2-Hydroxy-2-methyl-propyl)-methyl-amino]-pyridin-2-yloxy}-azetidin-1-yl)-phenyl]ethyl}-acetamide], 810 nM; for `CC(=O)N[C@@H](C)c1ccc(N2CC(Oc3cccc(OCC4CC4)n3)C2)cc1` [Example 12.2], 1380 nM. With `CCCOc1cccc(OC2CN(c3ccc([C@H](C)NC(C)=O)cc3)C2)n1` [Example 12.3], the IC50 is 730 nM.

Take `CC(=O)N[C@@H](C)c1ccc(N2CC(Oc3cccc(N4CCC(C)CC4)n3)C2)cc1` [Example 12.4]: the IC50 was found to be 220 nM. To `CC(=O)N[C@@H](C)c1ccc(N2CC(Oc3cccc(C)n3)C2)cc1` [Example 12.5] belongs 530 nM; to `CC(=O)N[C@@H](C)c1ccc(N2CC(Oc3cccc(N(C)C)n3)C2)cc1` [Example 12.6], 90 nM. To `CC(=O)N[C@@H](C)c1ccc(N2CC(Oc3cccc(OC4CCC4)n3)C2)cc1` [Example 12.7] belongs 310 nM; to `CC(=O)N[C@@H](C)c1ccc(N2CC(Oc3cccc(OC4CCOC4)n3)C2)cc1` (stereo partly shown) [Example 12.8], 1750 nM; to `CC(=O)N[C@@H](C)c1ccc(N2CC(Oc3cccc(OC(C)C)n3)C2)cc1` [Example 12.9], 490 nM.

Regarding `CC(=O)N[C@@H](C)c1ccc(N2CC(Oc3cccc(C4CC4)n3)C2)cc1` [Example 12.10], the IC50 turned out to be 450 nM. For `CCc1cccc(OC2CN(c3ccc([C@H](C)NC(C)=O)cc3)C2)n1` [Example 12.11] the value was 330 nM; for `CC(=O)N[C@@H](C)c1ccc(N2CC(Oc3cccc(C(F)F)n3)C2)cc1` [Example 12.12], 100 nM; for `CC(=O)N[C@@H](C)c1ccc(N2CC(Oc3cccc(C4CCCC4)n3)C2)cc1` [Example 12.13], 180 nM. For `CC(=O)N[C@@H](C)c1ccc(N2CC(Oc3cccc(C4CCC4)n3)C2)cc1` [Example 12.14], the IC50 was found to be 220 nM. With `CC(=O)N[C@@H](C)c1ccc(N2CC(Oc3cccc(N4CCOCC4)n3)C2)cc1` [Example 12.15], the IC50 turned out to be 830 nM.

With `CCOc1cccc(OC2CN(c3ccc([C@H](C)NC(C)=O)cc3)C2)n1` [Example 12.16], the IC50 worked out at 380 nM. For the molecule `CC(=O)N[C@@H](C)c1ccc(N2CC(Oc3cccc(C(C)(C)C)n3)C2)cc1` [Example 12.17], the IC50 came out at 50 nM. To `CC(=O)N[C@@H](C)c1ccc(N2CC(Oc3cccc(OCC4CC4(F)F)n3)C2)cc1` (stereo partly shown) [Example 12.18] belongs 650 nM.

With `CC(=O)N[C@@H](C)c1ccc(N2CC(Oc3cccc(C(C)C)n3)C2)cc1` [Example 12.19], the half-maximal inhibitory concentration (IC50) was found to be 230 nM. As to `CC(=O)N[C@@H](C)c1ccc(N2CC(Oc3ccnc(N4CCOCC4)n3)C2)cc1` [Example 13.1, (S)—N-(1-{4-[3-(2-Morpholin-4-yl-pyrimidin-4-yloxy)-azetidin-1-yl]-phenyl}-ethyl)-acetamide], the IC50 worked out at 350 nM. As to `CC(=O)N[C@@H](C)c1ccc(N2CC(Oc3ccnc(N4CCCC4)n3)C2)cc1` [Example 13.2, (S)—N-(1-{4-[3-(2-Pyrrolidin-1-yl-pyrimidin-4-yloxy)-azetidin-1-yl]-phenyl}-ethyl)-acetamide], the IC50 was 60 nM.

In the case of `COc1cccc(OC2CN(c3ccc([C@H](C)NC(C)=O)cc3)C2)n1` [Example 14.1, (S)—N-(1-{4-[3-(6-Methoxy-pyridin-2-yloxy)-azetidin-1-yl]-phenyl}-ethyl)-acetamide], the IC50 amounted to 380 nM. For `CC(=O)N[C@@H](C)c1ccc(N2CC(Oc3cccc(C(F)(F)F)n3)C2)cc1` [Example 14.2] the value was 60 nM. To `CC(=O)N[C@@H](C)c1ccc(N2CC(Oc3ccnc(C)n3)C2)cc1` [Example 14.3, (S)—N-(1-{4-[3-(2-Methyl-pyrimidin-4-yloxy)-azetidin-1-yl]-phenyl}-ethyl)-acetamide] belongs 980 nM; to `CC(=O)NC(C)(C)c1ccc(N2CC(Oc3ccc(OCC4CC4)cc3)C2)cc1` [Example 15.1, N-(1-{4-[3-(4-Cyclopropylmethoxy-phenoxy)-azetidin-1-yl]-phenyl}-1-methyl-ethyl)-acetamide], 910 nM; to `COCCOc1ccc(OC2CN(c3ccc([C@H](C)NC(=O)c4sc(NC(C)=O)nc4C)cc3)C2)cc1` [Example 16.1, (S)-2-Acetylamino-4-methyl-thiazole-5-carboxylic acid [1-(4-{3-[4-(2-methoxy-ethoxy)-phenoxy]-azetidin-1-yl}-phenyl)-ethyl]-amide], 130 nM.
